Experimental data from patent publication US12076320B2, “Diarylpyrazole compound, composition comprising same, and use thereof” (Shenzhen TargetRx, Inc., priority 2018, dated 2024).

Tests used:
[1] = Metabolic stability evaluation in human liver microsomes; type: in vitro ADME; conditions: human liver microsomes 0.5 mg/mL, compound 1 μM; for microsomal CLint at 1 μM / half-life at 1 μM: pH 7.4; for microsomal CLint at 1 μM: read-out: HLM CL; for half-life at 1 μM: read-out: HLM T1/2
Method: (§1) Microsome assay: human liver microsomes (HLM): 0.5 mg/mL, Xenotech; rat liver microsomes (RLM): 0.5 mg/mL, Xenotech; coenzyme (NADPH/NADH): 1 mM, Sigma Life Science; magnesium chloride: 5 mM, 100 mM phosphate buffer (pH 7.4).
(§2) Preparation of stock solutions: Powders of the example compounds and the control compound were accurately weighed and dissolved in DMSO to 5 mM respectively.
(§3) Preparation of phosphate buffer (100 mM, pH 7.4): A pre-prepared 0.5 M potassium dihydrogen phosphate solution (150 mL) was mixed with a pre-prepared 0.5 M dibasic potassium phosphate solution (700 mL). The pH of the mixture was adjusted to 7.4 with a 0.5 M dibasic potassium phosphate solution. The mixture was diluted 5-fold with ultrapure water before use, and magnesium chloride was added to obtain a phosphate buffer (100 mM) containing 100 mM potassium phosphate, 3.3 mM magnesium chloride, pH 7.4.
(§4) A NADPH regeneration system solution (containing 6.5 mM NADP, 16.5 mM G-6-P, 3 U/mL G-6-P D, 3.3 mM magnesium chloride) was prepared and placed on wet ice before use.
(§5) Preparation of stop solution: an acetonitrile solution containing 50 ng/mL propranolol hydrochloride and 200 ng/mL tolbutamide (internal standard). 25057.5 μL of phosphate buffer (pH 7.4) was added into a 50 mL centrifuge tube, to which 812.5 μL of human liver microsomes were then added and mixed well to obtain a liver microsome dilution with a protein concentration of 0.625 mg/mL. 25057.5 μL of phosphate buffer (pH 7.4) was added into a 50 mL centrifuge tube, to which 812.5 μL of SD rat liver microsomes were then added and mixed well to obtain a liver microsome dilution with a protein concentration of 0.625 mg/mL.
(§6) Incubation of the samples: The stock solutions of the respective compounds were respectively diluted to 0.25 mM with an aqueous solution containing 70% acetonitrile, and used as a working solution, ready for use. 398 μL of the dilutions of human liver microsomes or rat liver microsomes were added to 96-well incubation plates (N=2), respectively, and 2 μL of 0.25 mM working solution was added respectively and nixed.
(§7) Metabolic stability assay: 300 μL of pre-chilled stop solution was added to each well of 96-well deep well plates and placed on ice as stop plates. The 96-well incubation plates and NADPH regeneration system were placed in a 37° C. water bath, shaken at 100 rpm and pre-incubated for 5 min. 80 μL of incubation solution was taken out from each well of the incubation plates, added to the stop plates, mixed well, and replenished with 20 μL of NADPH regeneration system solution. The resulting mixture was used as a 0-min sample. 80 μL of NADPH regeneration system solution was added to each well of the incubation plates to start the reaction and start counting. […] At 10, 30, and 90 minutes of the reaction, respectively, 100 μL of the reaction solutions were taken out, added to the stop plates, and vortexed for 3 minutes to stop the reaction. The stop plates were centrifuged at 5000×g at 4° C. for 10 min. 100 μL of the supernatant was taken out, added to a 96-well plate pre-added with 100 μL of distilled water, mixed well, and analyzed by LC-MS/MS.
(§8) Data analysis: The peak areas of the corresponding compounds and internal standard were detected by LC-MS/MS system, and the ratio of the peak area of the compounds to the internal standard was calculated.

[2] = Metabolic stability evaluation in rat liver microsomes; type: in vitro ADME, SD rat; conditions: rat liver microsomes 0.5 mg/mL, compound 1 μM; for microsomal CLint at 1 μM / half-life at 1 μM: SD, pH 7.4; for microsomal CLint at 1 μM: read-out: RLM CL; for half-life at 1 μM: read-out: RLM T1/2
Method: as §1, §2, §3, §4, §5, §6, §7, §8

[3] = at weakly acidic and neutral pH; cited from earlier work
[4] = tested on: HT-29 colorectal cancer cell line with BRAF V600E mutation; assay: Cytotoxicity assay (CTG, 72 hours); type: cell-based; conditions: Homo sapiens, HT-29 cells
Method: The cell viability was detected by trypan blue exclusion method to ensure that the cell viability was greater than 90%. The cells were inoculated in a 96-well plate and cultured overnight under the condition of 37° C. and 5% CO2. The 10-fold drug solutions were prepared by a 3.16-fold serial dilution starting from a maximum concentration of 1 μM, resulting in 9 concentrations. 10 μL of the drug solutions were added to each well of the 96-well plate in triplicate, and the incubation was further continued for 72 hours. An equal volume of CTG solution was added to each well, and the cell plate w as shaked on an orbital shaker for 5 minutes to lyse the cells. The cell plate was placed at room temperature for 20 minutes to stabilize the luminescence signal, and the luminescence values were then read on a SpectraMax multi-label microplate reader (MD, 2104-0010A). The data were analyzed with GraphPad Prism 5.0 software, and fitted using the non-linear S-curve regression to obtain a dose-effect curve, from which IC50 values were calculated accordingly.

| SMILES | microsomal CLint at 1 μM [1] | half-life at 1 μM [1] | microsomal CLint at 1 μM [2] | half-life at 1 μM [2] | HLM CL [1] | HLM T1/2 [1] | RLM CL [2] | RLM T1/2 [2] | water-solubility [3] | IC50 [4] |
| --- | --- | --- | --- | --- | --- | --- | --- | --- | --- | --- |
| [2H]C([2H])([2H])[C@H](NC(=O)OC)C([2H])([2H])Nc1nccc(-c2cn(C(C)C)nc2-c2cc(Cl)cc(NS(C)(=O)=O)c2F)n1 (single isomer, unassigned) [L-4-S] | 12.5 µL/min/mg | 111 min | 16.7 µL/min/mg | 83.1 min |  |  |  |  |  |  |
| COC(=O)N[C@@H](C)CNc1nccc(-c2cn(C(C)C)nc2-c2cc(Cl)cc(NS(C)(=O)=O)c2F)n1 [Encorafenib, (S)-methyl (1-((4-(3-(5-chloro-2-fluoro-3-(methylsulfonamido)phenyl)-1-isopropyl-1H-pyrazol-4-yl)pyrimidin-2-yl)amino)propan-2-yl)carbamate, reference compound] | 17.3 µL/min/mg | 80.1 min | 17.4 µL/min/mg | 79.6 min |  |  |  |  | poor | 8.96 nM |
| [2H]C([2H])([2H])[C@H](NC(=O)OC)C([2H])([2H])Nc1nccc(-c2cn(C([2H])(C([2H])([2H])[2H])C([2H])([2H])[2H])nc2-c2cc(Cl)cc(NS(C)(=O)=O)c2F)n1 [L-5-S, (S)-methyl (1-((4-(3-(5-chloro-2-fluoro-3-(methylsulfonamido)phenyl)-1-(propan-2-yl-d7)-3-1H-pyrazol-4-yl)pyrimidin-2-yl)amino)propan-2-yl-1,1,3,3,3-d5)carbamate] |  |  |  |  | 5.69 µL/min/mg | 243.77 min | 10.22 µL/min/mg | 135.57 min |  |  |

Now from value to molecule, other results behind:

| microsomal CLint at 1 μM [1] | half-life at 1 μM [1] | microsomal CLint at 1 μM [2] | half-life at 1 μM [2] | HLM CL [1] | HLM T1/2 [1] | RLM CL [2] | RLM T1/2 [2] | SMILES | water-solubility [3] | IC50 [4] |
| --- | --- | --- | --- | --- | --- | --- | --- | --- | --- | --- |
| 9.47 µL/min/mg | 146 min | 11.8 µL/min/mg | 117 min |  |  |  |  | [2H]C([2H])([2H])C([2H])(n1cc(-c2ccnc(NC[C@H](C)NC(=O)OC)n2)c(-c2cc(Cl)cc(NS(C)(=O)=O)c2F)n1)C([2H])([2H])[2H] (single isomer, unassigned) [L-1] |  |  |
| 9.07 µL/min/mg | 153 min | 16.8 µL/min/mg | 82.7 min |  |  |  |  | [2H]C([2H])([2H])OC(=O)N[C@@H](C)CNc1nccc(-c2cn(C(C)C)nc2-c2cc(Cl)cc(NS(C)(=O)=O)c2F)n1 (single isomer, unassigned) [L-2] |  |  |
| 4.87 µL/min/mg | 285 min | 11.3 µL/min/mg | 123 min |  |  |  |  | [2H]C([2H])([2H])OC(=O)N[C@@H](C)CNc1nccc(-c2cn(C([2H])(C([2H])([2H])[2H])C([2H])([2H])[2H])nc2-c2cc(Cl)cc(NS(C)(=O)=O)c2F)n1 (single isomer, unassigned) [L-3] |  |  |
